In ChEMBL document CHEMBL1806384, “Identification of benzofuran-4,5-diones as novel and selective non-hydroxamic acid, non-peptidomimetic based inhibitors of human peptide deformylase” (Bioorg Med Chem Lett, 2011):
In brackets after ≈: the same amount, converted by molar mass.

Legend:
[1] = biological target: T1, Peptide deformylase, mitochondrial (Homo sapiens) (UniProt Q9HBH1); assay: Inhibition of human peptide deformylase at 10 uM after 1 hr by fluorescence polarization based competition assay
T1 sequence (whole entry): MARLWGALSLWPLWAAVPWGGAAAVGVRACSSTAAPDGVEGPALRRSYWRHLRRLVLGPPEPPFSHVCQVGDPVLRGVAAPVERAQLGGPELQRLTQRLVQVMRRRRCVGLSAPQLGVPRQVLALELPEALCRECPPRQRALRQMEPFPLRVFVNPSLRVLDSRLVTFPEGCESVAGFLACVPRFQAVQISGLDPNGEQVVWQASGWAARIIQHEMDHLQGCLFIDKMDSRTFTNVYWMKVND

Haemophilus influenzae = assay: Antibacterial activity against Haemophilus influenzae ATCC 49766; type: functional
Cutibacterium acnes = assay: Antibacterial activity against Propionibacterium acnes ATCC 11827; type: functional
Citrobacter freundii = assay: Antibacterial activity against Citrobacter freundii ATCC 8090; type: functional
Staphylococcus aureus = assay: Antibacterial activity against Staphylococcus aureus ATCC 29213; type: functional
Candida albicans = assay: Antifungal activity against Candida albicans ATCC 90028; type: functional
Enterococcus faecalis = assay: Antibacterial activity against Enterococcus faecalis ATCC 29212; type: functional
Bacteroides fragilis = assay: Antibacterial activity against Bacteroides fragilis ATCC 25285; type: functional
Streptococcus pyogenes = assay: Antibacterial activity against Streptococcus pyogenes ATCC 19615; type: functional
Escherichia coli = assay: Antibacterial activity against Escherichia coli ATCC 25922; type: functional
Enterococcus faecium = assay: Antibacterial activity against Enterococcus faecium ATCC 19434; type: functional
Streptococcus pneumoniae = assay: Antibacterial activity against Streptococcus pneumoniae ATCC 6301; type: functional
[2] = tested on: Staphylococcus epidermidis; assay: Antibacterial activity against Staphylococcus epidermidis ATCC 12228; type: functional
Enterobacter cloacae = assay: Antibacterial activity against Enterobacter cloacae ATCC 13047; type: functional
HL-60 [3] = assay: Cytotoxicity against human HL60 cells; type: functional, cell-based
HL-60 [4] = assay: Cytotoxicity against human vincristine-resistant HL60 cells; type: functional, cell-based
[5] = biological target: T2, Interstitial collagenase (Homo sapiens) (UniProt P03956); assay: Inhibition of human recombinant MMP1 at 100 uM after 1 hr by fluorescence polarization based competition assay
T2 sequence (whole entry): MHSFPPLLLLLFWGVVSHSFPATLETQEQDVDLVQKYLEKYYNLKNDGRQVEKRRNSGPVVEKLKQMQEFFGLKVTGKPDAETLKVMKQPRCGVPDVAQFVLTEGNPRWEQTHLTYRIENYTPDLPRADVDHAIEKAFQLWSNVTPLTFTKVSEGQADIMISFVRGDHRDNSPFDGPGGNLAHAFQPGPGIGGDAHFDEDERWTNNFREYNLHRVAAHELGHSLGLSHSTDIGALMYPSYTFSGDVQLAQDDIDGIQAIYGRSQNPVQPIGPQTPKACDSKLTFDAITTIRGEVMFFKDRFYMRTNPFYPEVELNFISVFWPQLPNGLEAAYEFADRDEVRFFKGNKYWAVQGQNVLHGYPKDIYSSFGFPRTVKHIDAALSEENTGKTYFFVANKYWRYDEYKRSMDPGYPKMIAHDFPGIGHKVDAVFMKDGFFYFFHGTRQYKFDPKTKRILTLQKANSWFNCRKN

[6] = Cytotoxicity against human CWR22 cells; type: functional, cell-based
[7] = biological target: T1, Peptide deformylase, mitochondrial (Homo sapiens); assay: Inhibition of human peptide deformylase at 100 uM after 1 hr by fluorescence polarization based competition assay
[8] = biological target: T3, Peptide deformylase (Escherichia coli) (UniProt Q9JN24); assay: Inhibition of Escherichia coli peptide deformylase at 100 uM after 1 hr by fluorescence polarization based competition assay
T3 sequence (whole entry): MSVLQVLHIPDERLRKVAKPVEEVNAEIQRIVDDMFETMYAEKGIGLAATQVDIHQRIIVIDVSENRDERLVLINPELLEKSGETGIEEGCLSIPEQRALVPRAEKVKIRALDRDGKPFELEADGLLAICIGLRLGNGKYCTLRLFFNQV

Peptide deformylase = biological target: T4, Peptide deformylase (Escherichia coli, UniProt Q9JN24); assay: Inhibition of Escherichia coli peptide deformylase after 1 hr by fluorescence polarization based competition assay
T4 sequence (Q9JN24 whole entry): T3 sequence (whole entry)

Y79 = assay: Cytotoxicity against human Y79 cells; type: functional, cell-based
HEK293 = assay: Cytotoxicity against human HEK293 cells; type: cell-based
[9] = biological target: T5, Aminopeptidase N (Sus scrofa) (UniProt P15145); assay: Inhibition of porcine kidney microsomal aminopeptidase N at 100 uM after 1 hr by fluorescence polarization based competition assay
T5 sequence (whole entry): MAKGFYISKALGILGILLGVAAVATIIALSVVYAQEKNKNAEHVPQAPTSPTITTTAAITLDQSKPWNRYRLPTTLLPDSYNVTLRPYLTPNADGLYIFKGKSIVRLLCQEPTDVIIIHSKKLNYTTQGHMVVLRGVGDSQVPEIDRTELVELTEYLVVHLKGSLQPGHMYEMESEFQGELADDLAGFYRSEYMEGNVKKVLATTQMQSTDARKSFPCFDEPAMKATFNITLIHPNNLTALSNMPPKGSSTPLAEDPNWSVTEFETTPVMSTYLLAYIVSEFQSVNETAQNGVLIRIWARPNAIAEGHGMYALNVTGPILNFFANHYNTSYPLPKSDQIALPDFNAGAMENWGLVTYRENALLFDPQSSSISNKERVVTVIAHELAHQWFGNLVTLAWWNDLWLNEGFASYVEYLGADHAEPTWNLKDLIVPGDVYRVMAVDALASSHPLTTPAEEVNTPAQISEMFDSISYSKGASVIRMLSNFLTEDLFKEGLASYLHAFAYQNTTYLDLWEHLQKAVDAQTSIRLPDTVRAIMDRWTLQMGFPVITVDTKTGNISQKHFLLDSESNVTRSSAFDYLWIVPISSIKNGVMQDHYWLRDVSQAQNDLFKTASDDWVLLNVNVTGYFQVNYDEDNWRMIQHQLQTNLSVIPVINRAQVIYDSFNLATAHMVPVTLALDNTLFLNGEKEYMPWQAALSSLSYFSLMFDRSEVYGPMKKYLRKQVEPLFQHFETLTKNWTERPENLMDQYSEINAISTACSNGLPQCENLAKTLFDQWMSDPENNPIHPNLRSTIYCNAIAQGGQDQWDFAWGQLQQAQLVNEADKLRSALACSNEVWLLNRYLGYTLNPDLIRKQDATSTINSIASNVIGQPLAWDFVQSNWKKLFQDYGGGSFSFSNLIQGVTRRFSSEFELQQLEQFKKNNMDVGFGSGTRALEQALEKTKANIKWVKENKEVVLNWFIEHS

[10] = Cytotoxicity against human Meso47 cells; type: functional, cell-based
Jurkat = assay: Cytotoxicity against human Jurkat cells; type: functional, cell-based
MOLT-3 = assay: Cytotoxicity against human MOLT3 cells; type: functional, cell-based
[11] = biological target: T6, Peptide deformylase, mitochondrial (Homo sapiens, UniProt Q9HBH1); assay: Inhibition of human peptide deformylase after 1 hr by fluorescence polarization based competition assay
T6 sequence (Q9HBH1 whole entry): T1 sequence (whole entry)

[12] = Cytotoxicity against human ALL3 cells; type: functional, cell-based
HL-60 [13] = assay: Antitumor activity against human HL60 cells xenografted in athymic nude mouse assessed as tumor growth delay at 15 mg/kg, ip administered 3 times a week for 2 weeks; type: functional; settings: route intraperitoneal

Row | Compound | inhibition [1] [%] | MIC (Haemophilus influenzae) [µg/mL] | MIC (Cutibacterium acnes) [µg/mL] | MIC (Citrobacter freundii) [µg/mL] | MIC (Staphylococcus aureus) [µg/mL] | MIC (Candida albicans) [µg/mL] | MIC (Enterococcus faecalis) [µg/mL] | MIC (Bacteroides fragilis) [µg/mL] | MIC (Streptococcus pyogenes) [µg/mL] | MIC (Escherichia coli) [µg/mL] | MIC (Enterococcus faecium) [µg/mL] | inhibition [5] [%] | inhibition [7] [%] | inhibition [8] [%] | IC50 (Peptide deformylase) [µM] | IC50 (Y79) [µM] | IC50 (HEK293) [µM] | inhibition [9] [%] | IC50 (MOLT-3) [µM] | IC50 [12] [µM] | also measured
1 | O=C1C(=O)c2c(C(=O)c3ccccc3)coc2C=C1Br | 97 |  |  |  |  |  |  |  |  |  |  |  |  |  |  |  |  |  |  |  | 
2 | C[C@@H](O)[C@H]1C(=O)N2C(C(=O)O)=C(SCCNC=N)C[C@H]12 [IMIPENEM ANHYDROUS] |  | 1 (≈ 3.34 µM) | ≤ 0.12 | 1 (≈ 3.34 µM) | ≤ 0.12 | > 64 | 0.5 (≈ 1.67 µM) | ≤ 0.12 | ≤ 0.12 | ≤ 0.12 | 2 (≈ 6.68 µM) |  |  |  |  |  |  |  |  |  | MIC (Streptococcus pneumoniae): ≤ 0.12 µg/mL; MIC [2]: ≤ 0.12 µg/mL; MIC (Enterobacter cloacae): 1 µg/mL (≈ 3.34 µM)
3 | CC(=O)C(C(C)=O)C1=C(Cl)C(=O)C(=O)c2c(C(=O)c3ccc(C)cc3)coc21 | 75 |  |  |  |  |  |  |  |  |  |  |  |  |  |  |  |  |  |  |  | 
4 | COc1ccc(C(=O)c2coc3c2C(=O)C(=O)C(Br)=C3Br)cc1OC |  |  |  |  |  |  |  |  |  |  |  | 46 | 100 | 53 | > 100 | 100 | 100 | 96 | 25 | 36 | IC50 (HL-60 [3]): 42 µM; IC50 (HL-60 [4]): 64 µM; IC50 [6]: 100 µM; IC50 [10]: 100 µM; IC50 (Jurkat): 28 µM; IC50 [11]: 10 µM
5 | COc1cc(C(=O)c2coc3c2C(=O)C(=O)C(Br)=C3Br)cc(OC)c1OC |  |  |  |  |  |  |  |  |  |  |  | 38 | 100 | 32 | > 100 | 33 | 16 | 50 | 2.9 | 10 | IC50 (HL-60 [4]): 12 µM; IC50 [6]: 21 µM; Activity (HL-60 [13]): 40%; IC50 [10]: 37 µM; IC50 (Jurkat): 2.8 µM
6 | O=C(O)c1cn(C2CC2)c2cc(N3CCNCC3)c(F)cc2c1=O [CIPROFLOXACIN] |  | ≤ 0.12 | 0.25 (≈ 0.754 µM) | ≤ 0.12 | 0.5 (≈ 1.51 µM) | > 64 | 0.25 (≈ 0.754 µM) | 4 (≈ 12.1 µM) | 0.25 (≈ 0.754 µM) | ≤ 0.12 | 4 (≈ 12.1 µM) |  |  |  |  |  |  |  |  |  | MIC [2]: ≤ 0.12 µg/mL
7 | O=C1C(=O)c2c(C(=O)c3ccccc3)coc2C(Cl)=C1Cl | 90 | > 64 | > 64 | > 64 | > 64 | > 64 | > 64 | > 64 | > 64 | > 64 | > 64 | 41 | 100 | 65 | > 100 | 100 | 100 | 101 | 31 | 69 | IC50 (HL-60 [4]): 100 µM; IC50 [6]: 72 µM; IC50 [10]: 100 µM; MIC (Streptococcus pneumoniae): 4 µg/mL (≈ 12.5 µM); MIC [2]: > 64 µg/mL; MIC (Enterobacter cloacae): > 64 µg/mL
8 | Cc1ccc(C(=O)c2coc3c2C(=O)C(=O)C(Br)=C3)cc1 | 81 |  |  |  |  |  |  |  |  |  |  |  |  |  |  |  |  |  |  |  | 
9 | COc1ccc(C(=O)c2coc3c2C(=O)C(=O)C(Cl)=C3Cl)cc1 |  | > 64 | > 64 | > 64 | > 64 | > 64 | > 64 | > 64 | > 64 | > 64 | > 64 | 0 | 88 | 1 | > 100 | 66 | 30 | 50 | 4.1 | 27 | IC50 (HL-60 [3]): 10 µM; IC50 (HL-60 [4]): 43 µM; IC50 [6]: 50 µM; IC50 [10]: 100 µM; IC50 (Jurkat): 6.1 µM; IC50 [11]: 15 µM; MIC (Streptococcus pneumoniae): 16 µg/mL (≈ 45.6 µM); MIC [2]: > 64 µg/mL; MIC (Enterobacter cloacae): > 64 µg/mL
10 | COc1ccc(C(=O)c2coc3c2C(=O)C(=O)C(Br)=C3)cc1 | 90 |  |  |  |  |  |  |  |  |  |  | 26 | 100 | 5 | > 100 | 100 | 54 | 22 | 4 | 48 | IC50 (HL-60 [3]): 48 µM; IC50 (Jurkat): 20 µM; IC50 [11]: 32 µM
